A short description of assay [1]: Antagonist activity at CCR2 in human PBMC assessed as inhibition of MCP1-induced chemotaxis.
The nature of assay [2]: Antagonist activity at CCR2 in mouse monocytes assessed as inhibition of MCP1-induced chemotaxis.

By IC50 is commonly meant the concentration that inhibits the measured activity by half.

On to `CCC[C@H](O)[C@H](CNCc1ccc(C)cc1C)NC(=O)CNC(=O)c1cc(C(F)(F)F)ccc1NC(=O)N1CCCC1`, for which the IC50 in assay [1] was 5.2 nM. The same measure, in the same setting: then `CCC[C@H](O)[C@H](CNCc1ccc(C)cc1C)NC(=O)CNC(=O)c1cc(N)cc(C(F)(F)F)c1`, with 20 nM; and `CCC[C@H](O)[C@H](CNCc1ccc(C)cc1C)NC(=O)CC(=O)Nc1cc(NCC)cc(C(F)(F)F)c1`, with 12 nM. Turning to `CCC[C@H](O)[C@H](CNCc1ccc(C)cc1C)NC(=O)CC(=O)Nc1cc(N)cc(C(F)(F)F)c1`, the IC50 in assay [1] worked out at 14 nM. On the same count and under the same terms, then `CCC[C@H](O)[C@H](CNCc1ccc(C)cc1C)NC(=O)CNC(=O)c1cc(C(F)(F)F)ccc1NC(=O)NC`, with 5 nM.

Take `CCC[C@H](O)[C@H](CNCc1ccc(C)cc1C)NC(=O)CNC(=O)c1cc(C(F)(F)F)ccc1NC(=O)NCC`: the IC50 in assay [1] was 24 nM; in assay [2], 4 nM. Take `CCC[C@H](O)[C@H](CNCc1ccc(C)cc1C)NC(=O)CC(=O)Nc1cc(NC)cc(C(F)(F)F)c1`: in assay [1], the IC50 is 23 nM. Still for that read-out and setting: for `CCC[C@H](O)[C@H](CNCc1ccc(C)cc1C)NC(=O)CNC(=O)c1cc(C(F)(F)F)ccc1NC(=O)N1CCC1` the value was 4.3 nM. Still for that read-out and setting: for `CCC[C@H](O)[C@H](CNCc1ccc(C)cc1C)NC(=O)CNC(=O)c1cc(C(F)(F)F)ccc1NC(=O)OC(C)(C)C` the value was 17 nM; for `CCC[C@H](O)[C@H](CNCc1ccc(C)cc1C)NC(=O)CNC(=O)c1cc(C(F)(F)F)ccc1NC(=O)N1CCNCC1`, 10 nM; for `CCC[C@H](O)[C@H](CNCc1ccc(C)cc1C)NC(=O)CNC(=O)c1cc(C(F)(F)F)ccc1NC(=O)N1CCOCC1`, 13 nM. Same read-out and setting: for `CCC[C@H](O)[C@H](CNCc1ccc(C)cc1C)NC(=O)CC(=O)Nc1cccc(C(F)(F)F)c1` the value was 81 nM. As to `CCC[C@H](O)[C@H](CNCc1ccc(C)cc1C)NC(=O)CNC(=O)c1cc(C(F)(F)F)ccc1NC(C)C`, the IC50 in assay [1] is 9 nM.

Take `CCC[C@H](O)[C@H](CNCc1ccc(C)cc1C)NC(=O)CNC(=O)c1cc(C(F)(F)F)ccc1N`: the IC50 in assay [1] worked out at 32 nM. Still for that read-out and setting: then `CCC[C@H](O)[C@H](CNCc1ccc(C)cc1C)NC(=O)CNC(=O)c1cc(C(F)(F)F)ccc1NC(C)(C)C`, with 33 nM.

Turning to `CCC[C@H](O)[C@H](CNCc1ccc(C)cc1C)NC(=O)CNC(=O)c1cc(C(F)(F)F)ccc1NCc1ccccc1`, the 50% inhibitory concentration (IC50) in assay [1] was 7.2 nM. Same read-out and setting: for `CCC[C@H](O)[C@H](CNCc1ccc(C)cc1C)NC(=O)CNc1n[nH]c2ccc(C(F)(F)F)cc12` the value was 74 nM.

The record behind these values is BindingDB's records for doi:10.1016/j.bmcl.2012.03.007 (Bristol-Myers Squibb, 2012).
